Laboratory results reported in ChEMBL document CHEMBL1201862, “PubChem BioAssay data set” (2004).
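1) Cells in 96-well plates. 2) Compound, 48 h, 5 concentrations. 3) Linear interpolation between surrounding doses. 4) Unreached endpoint = highest concentration. Abbreviation: GI50, concentration required for 50% inhibition of growth.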 Active and inactive are the calls of the source. Cut-off read from the data, not from the text of the source: active = GI50 up to about 1.1 µM and inactive = higher.

Assays:
Assay in all cases: inhibition of tumour cell growth, NCI panel, 48 h
[1] = tested on: HCC 2998
[2] = tested on: HL-60
[3] = tested on: HOP-62
[4] = tested on: MOLT-4
[5] = tested on: OVCAR-3
[6] = tested on: OVCAR-4
[7] = tested on: SF-268
[8] = tested on: SK-MEL-5
[9] = tested on: SW-620
[10] = tested on: TK-10
[11] = tested on: UACC-62
[12] = tested on: ACHN
[13] = tested on: HCT-116
[14] = tested on: SF-539
[15] = tested on: SR

Measured: GI50

O=C1CCSC2=C1SCc1sccc12
inactive: [1] > 100 µM | [2] > 100 µM | [3] > 100 µM | [4] > 100 µM | [5] > 100 µM | [6] > 100 µM | [7] > 100 µM | [8] > 100 µM | [9] > 100 µM | [10] > 100 µM | [11] > 100 µM

CCOc1cc2c(cnc3c4cc(OC)c(OC)cc4ccc23)cc1OC
inactive: [12] > 100 µM | [1] > 100 µM | [13] > 100 µM | [3] > 100 µM | [4] > 100 µM | [5] > 100 µM | [6] > 100 µM | [7] > 100 µM | [14] > 100 µM | [8] > 100 µM | [9] > 100 µM | [10] > 100 µM | [11] > 100 µM

C=CN1C(=O)OC[C@@H]1c1ccccc1
inactive: [12] > 100 µM | [1] > 100 µM | [13] 83.2 µM | [2] > 100 µM | [3] > 100 µM | [4] > 100 µM | [5] > 100 µM | [6] > 100 µM | [7] > 100 µM | [14] > 100 µM | [8] > 100 µM | [9] 19.1 µM | [10] > 100 µM | [11] > 100 µM

O=S1(=O)c2ccccc2NC(c2ccc3ccccc3c2)CC1c1ccccc1F (centres undefined)
inactive: [12] > 100 µM | [1] > 100 µM | [2] > 100 µM | [3] > 100 µM | [4] > 100 µM | [5] > 100 µM | [6] > 100 µM | [7] > 100 µM | [14] > 100 µM | [8] > 100 µM | [9] > 100 µM | [10] > 100 µM | [11] > 100 µM

CCOC(=O)[C@H]1CSC[C@@H](C(=O)OC)N1
inactive: [12] > 100 µM | [1] > 100 µM | [13] > 100 µM | [2] > 100 µM | [3] > 100 µM | [4] > 100 µM | [5] > 100 µM | [6] > 100 µM | [7] > 100 µM | [8] > 100 µM | [15] > 100 µM | [9] > 100 µM | [10] > 100 µM | [11] > 100 µM

NC1=NNC(=O)c2nnc3c(C(=O)O)cnn3c2S1
inactive: [13] > 100 µM | [2] > 100 µM | [3] > 100 µM | [4] > 100 µM | [5] > 100 µM | [6] > 100 µM | [7] > 100 µM | [14] > 100 µM | [8] > 100 µM | [15] > 100 µM | [9] > 100 µM | [10] > 100 µM | [11] > 100 µM

COc1cccc(C=O)c1[O-].COc1cccc(C=O)c1[O-].[Zn+2]
inactive: [12] 44.1 µM | [1] > 100 µM | [13] 44.3 µM | [3] 46.9 µM | [4] 33.8 µM | [5] 32.8 µM | [6] 57.5 µM | [7] 55.7 µM | [14] 45.2 µM | [8] 35.2 µM | [15] 35.6 µM | [9] 56.1 µM | [10] > 100 µM | [11] 46.2 µM

O=c1cc(-c2ccccc2)[nH]c2c(F)ccc(F)c12
inactive: [12] > 100 µM | [13] 40.6 µM | [2] 31.8 µM | [3] 56 µM | [4] 46.2 µM | [6] > 100 µM | [7] > 100 µM | [14] 52.8 µM | [8] 44.1 µM | [15] 13.3 µM | [9] 35.3 µM | [10] 61.9 µM | [11] 30.7 µM

O=C(NCCCCCCCCCCCCNC(=O)c1cnc2ccccc2n1)c1cnc2ccccc2n1
inactive: [12] 44.3 µM | [1] > 100 µM | [13] 41.5 µM | [2] > 100 µM | [3] 20.6 µM | [4] > 100 µM | [5] 34.7 µM | [6] 13.6 µM | [7] > 100 µM | [14] 15.1 µM | [8] 9.59 µM | [9] > 100 µM | [11] > 100 µM

O=C(CP(=O)(O)O)c1cccs1
inactive: [12] > 100 µM | [1] > 100 µM | [13] > 100 µM | [2] > 100 µM | [3] > 100 µM | [5] > 100 µM | [7] > 100 µM | [14] > 100 µM | [8] > 100 µM | [9] > 100 µM | [10] > 100 µM | [11] > 100 µM

CN(C)NC(=S)NC12CC3CC(CC(C3)C1)C2
inactive: [12] > 100 µM | [1] > 100 µM | [13] > 100 µM | [2] > 100 µM | [3] > 100 µM | [4] > 100 µM | [5] > 100 µM | [6] > 100 µM | [7] > 100 µM | [14] > 100 µM | [8] > 100 µM | [9] > 100 µM | [10] > 100 µM | [11] > 100 µM

O=C1CCCCC1C1(O)C(=O)Nc2cc(F)ccc21 (centres undefined)
inactive: [12] > 100 µM | [1] > 100 µM | [13] > 100 µM | [2] > 100 µM | [3] > 100 µM | [4] > 100 µM | [6] > 100 µM | [7] > 100 µM | [14] > 100 µM | [8] > 100 µM | [9] > 100 µM | [10] > 100 µM | [11] > 100 µM

CC(=O)Nc1ccc(/C=C2\N=C(c3ccccc3)OC2=O)cc1
inactive: [12] > 100 µM | [1] 36.1 µM | [13] 79.4 µM | [2] 76.7 µM | [3] > 100 µM | [4] 87.5 µM | [6] > 100 µM | [7] > 100 µM | [8] 57.8 µM | [9] > 100 µM | [10] > 100 µM | [11] 27.2 µM

Cc1cccc(C)c1NC(=O)CCCC(=O)C1CCC/C1=N\NC(=O)C(=O)NN (centres undefined)
inactive: [12] > 100 µM | [1] > 100 µM | [13] > 100 µM | [2] > 100 µM | [4] > 100 µM | [5] > 100 µM | [6] > 100 µM | [7] > 100 µM | [14] > 100 µM | [8] > 100 µM | [9] > 100 µM | [10] > 100 µM

COc1ccc(C(=O)C(c2ccc(OC)cc2)C2(O)C(=O)Nc3ccc([N+](=O)[O-])cc32)cc1 (centres undefined)
inactive: [12] > 100 µM | [13] > 100 µM | [2] 70.8 µM | [3] > 100 µM | [4] > 100 µM | [5] > 100 µM | [6] > 100 µM | [7] > 100 µM | [14] 11.3 µM | [15] 68.5 µM | [9] > 100 µM | [10] > 100 µM | [11] > 100 µM
